Reference: patent US11753408B2, “Compounds and method for blocking transmission of malarial parasite” (The United States of America, as represented by the …, priority 2016, dated 2023)
Blank lines part the entries; values can stand above or below the compound they belong to.

What was measured:
[1] = Microsomal stability (rat); type: in vitro ADME; settings: rat microsomes
[2] = test system: Stage III-V gametocytes (blood stage P. falciparum parasites); experiment: In vitro drug activity on gametocytes (AlamarBlue viability assay); type: cell-based, Plasmodium falciparum; settings: read-out: Gametocyte EC50
Description: Cell culture. Asexual parasites of P. falciparum strain 3D7 were cultured as described previously [Trager W, et al., Journal of Parasitology 2005, 91: 484-486], Stage III-V gametocytes were selected and enriched with 3-day treatment with 50 mM N-acetylglucosamine (NAG) and the following Percoll density gradient centrifugation after gametocyte production [Tanaka T Q, et al., Molecular and Biochemical Parasitology, 2011, 111: 160-163], Gametocytes of HB3 and Dd2 strains were produced and then set up for assay in a similar process. HepG2 cells (ATCC, cat. no. 77400) were cultured in 175-cm^2 tissue culture flasks with 30 ml growth medium at 37° C. in a 5% CO2 humidified atmosphere. Growth medium was made with Dulbecco's Modified Eagle Medium with 10% fetal bovine serum (FBS). Growth medium was replaced every other day and cells were passed at 75% confluence.
Compound screening experiments were performed as previously described [Tanaka T Q et al., Molecular and Biochemical Parasitology, 2013, 3188: 20-25], Briefly, 2.5 μl/well incomplete medium was dispensed into each well of 1,536-well plates using the Multidrop Combi followed by 23 nl compound transferring using the NX-TR Pintool (WAKO Scientific Solutions, San Diego, Calif.). 2.5 μl/well of gametocytes was dispensed with a seeding density of 20,000 cells/well using the Multidrop Combi. The assay plates were incubated for 72 h at 37° C. with 5% CO2. After addition of 5 μl/well of 2× AlamarBlue dye (Life Technologies, cat. no. DALI 100), the plates were incubated for 24 h at 37° C. with 5% CO2 and were read in a fluorescence detection mode (Ex=525 nm, Em=598 nm) on a ViewLux plate reader (PerkinElmer).
Stage III-V gametocytes (blood stage P. falciparum parasites) were enriched with treatment with 50 mM N-acetylglucosamine (NAG) and Percoll density gradient centrifugation as described previously^1. Briefly, 2.5 μl/well incomplete medium was dispensed into each well of 1,536-well plates using the Multidrop Combi followed by 23 nl compound transfer using the NX-TR Pintool (WAKO Scientific Solutions, San Diego, Calif.). Then, 2.5 μl/well of gametocytes was dispensed with a seeding density of 20,000 cells/well using the Multidrop Combi. The assay plates were incubated for 72 h at 37° C. with 5% CO2. After addition of 5 μl/well of 2× AlamarBlue dye (Life Technologies, cat. no. DALI 100), the plates were incubated for 24 h at 37° C. with 5% CO2 and then were read in a fluorescence detection mode (Ex=525 nm, Em=598 nm) on a ViewLux plate reader (PerkinElmer).

[3] = molecular target: mTOR (Homo sapiens, UniProt P42345); experiment: mTOR activity (no method described); type: biochemical
[4] = test system: Asexual parasites of P. falciparum strain 3D7; experiment: In vitro drug activity on asexual parasites (SYBR Green assay); type: cell-based, Plasmodium falciparum
Summary of the method: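 3D7 parasites at 0.5% parasitemia and 2% hematocrit were exposed to drugs (DMSO ≤0.5%) for 72 h under standard culture conditions, in duplicate. After freeze-thaw lysis, SYBR Green I lysis buffer was added for 30 min at room temperature, and fluorescence was read at 490/520 nm.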

[5] = Solubility at pH 7.4; type: physicochemical

- Microsomal Stability (rat) T1/2 [1]: >30.00 min
- mTOR [3]: 11.78 µM
- EC50 [4]: 731 nM
- Sol @ pH 7.4 [5]: 66.62 ug/mL
SMILES: CCN(CC)Cc1ccc(-c2ccc3ncc4ccc(=O)n(-c5ccc(C(=O)N6CCOCC6)cc5)c4c3c2)cc1 [Compound 175]
- EC50 [2]: 1620 nM

- Microsomal Stability (rat) T1/2 [1]: 18.4 min
- mTOR [3]: 0.07539 µM
- EC50 [4]: 7.55 nM
- Sol @ pH 7.4 [5]: <1.0 ug/mL
SMILES: O=C(c1ccc(-n2c(=O)ccc3cnc4ccc(-c5ccc(O)cc5)cc4c32)cc1)N1CCOCC1 [Compound 119]
- EC50 [2]: 32.4 nM

- Microsomal Stability (rat) T1/2 [1]: >30.0 min
- mTOR [3]: 6.235 µM
- EC50 [4]: 409 nM
- Sol @ pH 7.4 [5]: 8.8 ug/mL
SMILES: NC(=O)c1cc(-c2ccc3ncc4ccc(=O)n(-c5ccc(C(=O)N6CCOCC6)cc5)c4c3c2)ccc1Cl [Compound 149]
- EC50 [2]: 840 nM

- mTOR [3]: 50 µM
- EC50 [4]: 52.9 nM
- Sol @ pH 7.4 [5]: 0 ug/mL
SMILES: COc1cc(-c2ccc3ncc4c(c3c2)n(-c2cc(C#N)ccc2C)c(=O)n4C)ccc1F [Compound 409]
- EC50 [2]: 106 nM

- mTOR [3]: 0.5562 µM
- EC50 [4]: 90.2 nM
- Sol @ pH 7.4 [5]: <0.10 ug/mL
SMILES: CC1CC1NC(=O)c1ccc(-n2c(=O)ccc3cnc4ccc(-c5ccc(Cl)cc5)cc4c32)cc1 (centres unmarked) [Compound 176]
- EC50 [2]: 283 nM

- mTOR [3]: 100 µM
- EC50 [4]: 6.57 nM
- Sol @ pH 7.4 [5]: 0 ug/mL
SMILES: Cc1ccc(C#N)cc1-n1c(=O)n(C)c2cnc3ccc(-c4cccc(C#N)c4)cc3c21 [Compound 412]
- EC50 [2]: 39.9 nM

- mTOR [3]: 9.038 µM
- Sol @ pH 7.4 [5]: >74.00 ug/mL
SMILES: CC1CC1NC(=O)c1ccc(-n2c(=O)ccc3cnc4ccc(-c5ccc(CN(C)C)cc5)cc4c32)cc1 (centres unmarked) [Compound 177]
- EC50 [2]: 902 nM

- Microsomal Stability (rat) T1/2 [1]: 7.3 min
- mTOR [3]: 0.857 µM
- EC50 [4]: 145 nM
SMILES: COc1cccc(-c2ccc3ncc4ccc(=O)n(-c5ccc(C(=O)N6CCOCC6)cc5)c4c3c2)c1 [Compound 123]
- EC50 [2]: 442 nM

- Microsomal Stability (rat) T1/2 [1]: >30 min
- mTOR [3]: 10.68 µM
- Sol @ pH 7.4 [5]: >77 ug/mL
SMILES: COc1cc(C(=O)NC2CC2)ccc1-n1c(=O)ccc2cnc3ccc(-c4ccc(CN(C)C)cc4)cc3c21 [Compound 190]
- EC50 [2]: 248 nM

Second part, the compound before the results:

SMILES: Nc1ccc(-c2ccc3ncc4ccc(=O)n(-c5ccc(C(=O)N6CCOCC6)cc5)c4c3c2)cc1 [Compound 118]
- Microsomal Stability (rat) T1/2 [1]: >30.0 min
- EC50 [2]: 29.6 nM
- mTOR [3]: 0.2691 µM
- EC50 [4]: 6.6 nM
- Sol @ pH 7.4 [5]: <1.0 ug/mL

SMILES: O=C(c1ccc(-n2c(=O)ccc3cnc4ccc(-c5ccc(CO)cc5)cc4c32)cc1)N1CCOCC1 [Compound 120]
- Microsomal Stability (rat) T1/2 [1]: >30.0 min
- EC50 [2]: 35.9 nM
- mTOR [3]: 0.2246 µM
- EC50 [4]: 7.5 nM
- Sol @ pH 7.4 [5]: <1.0 ug/mL

SMILES: Cc1ccc(C#N)cc1-n1c(=O)n(C)c2cnc3ccc(-c4ccc(F)cc4)cc3c21 [Compound 411]
- EC50 [2]: 109 nM
- mTOR [3]: 100 µM
- EC50 [4]: 61.4 nM
- Sol @ pH 7.4 [5]: 0 ug/mL

SMILES: CC(C)(N)c1ccc(-c2ccc3ncc4ccc(=O)n(-c5ccc(C(=O)N6CCOCC6)cc5)c4c3c2)cc1 [Compound 187]
- EC50 [2]: 4590 nM
- mTOR [3]: 0.7246 µM
- EC50 [4]: 1600 nM
- Sol @ pH 7.4 [5]: 0 ug/mL

SMILES: Cc1ccc(C#N)cc1-n1c(=O)n(C)c2cnc3ccc(-c4ccc(F)c(C#N)c4)cc3c21 [Compound 408]
- EC50 [2]: 305 nM
- mTOR [3]: 100 µM
- EC50 [4]: 10 nM
- Sol @ pH 7.4 [5]: 0 ug/mL

SMILES: Cc1ccc(C#N)cc1-n1c(=O)n(C)c2cnc3ccc(-c4ccc(Cl)c(C#N)c4)cc3c21 [Compound 410]
- EC50 [2]: 36.3 nM
- mTOR [3]: 100 µM
- EC50 [4]: 2.49 nM
- Sol @ pH 7.4 [5]: 0 ug/mL

SMILES: Cn1c(=O)n(-c2cccc(C#N)c2)c2c3cc(-c4ccc(CCN)cc4)ccc3ncc21 [Compound 413]
- EC50 [2]: 54 nM
- mTOR [3]: 2.73 µM
- EC50 [4]: 29.4 nM
- Sol @ pH 7.4 [5]: 0 ug/mL
